Experiment [1] in a line: Sensory testing: paired choice of greater umami taste. The format is in vivo, human. Conditions: 16 mM MSG solution vs 4 ppm S807 solution, 32 selections; for number of selections favoring the solution as having greater umami taste: 16 panelists, 2 reps. From the text: Of the 32 selections, 19 favored the MSG solution and 13 favored the S807 solution.
The next experiment deals with T1, T1R1/T1R3 (Homo sapiens, UniProt Q7RTX1).
T1 construct: expressed in transfected cells
T1 sequence (Q7RTX1 21-841): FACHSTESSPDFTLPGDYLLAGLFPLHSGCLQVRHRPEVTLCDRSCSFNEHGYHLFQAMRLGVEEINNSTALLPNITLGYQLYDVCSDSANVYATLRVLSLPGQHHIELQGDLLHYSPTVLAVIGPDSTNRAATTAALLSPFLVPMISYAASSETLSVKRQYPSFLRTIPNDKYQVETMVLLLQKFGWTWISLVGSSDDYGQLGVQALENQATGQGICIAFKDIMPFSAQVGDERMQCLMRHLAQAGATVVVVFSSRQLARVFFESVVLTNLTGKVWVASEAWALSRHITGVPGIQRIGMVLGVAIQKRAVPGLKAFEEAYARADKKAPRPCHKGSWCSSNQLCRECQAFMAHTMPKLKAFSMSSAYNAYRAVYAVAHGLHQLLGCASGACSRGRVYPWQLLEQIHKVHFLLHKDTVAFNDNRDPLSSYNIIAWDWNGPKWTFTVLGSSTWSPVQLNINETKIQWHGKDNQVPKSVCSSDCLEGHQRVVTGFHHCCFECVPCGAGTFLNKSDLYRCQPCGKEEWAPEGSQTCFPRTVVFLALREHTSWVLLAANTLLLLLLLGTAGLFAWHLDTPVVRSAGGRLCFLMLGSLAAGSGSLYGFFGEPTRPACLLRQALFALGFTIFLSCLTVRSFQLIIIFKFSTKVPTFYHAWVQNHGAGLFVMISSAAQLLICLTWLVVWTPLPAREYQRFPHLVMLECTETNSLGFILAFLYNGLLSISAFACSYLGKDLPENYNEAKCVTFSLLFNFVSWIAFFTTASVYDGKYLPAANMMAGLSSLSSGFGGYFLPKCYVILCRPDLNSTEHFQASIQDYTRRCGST
T1 sequence (Q7RTX0 21-852 C757R partner): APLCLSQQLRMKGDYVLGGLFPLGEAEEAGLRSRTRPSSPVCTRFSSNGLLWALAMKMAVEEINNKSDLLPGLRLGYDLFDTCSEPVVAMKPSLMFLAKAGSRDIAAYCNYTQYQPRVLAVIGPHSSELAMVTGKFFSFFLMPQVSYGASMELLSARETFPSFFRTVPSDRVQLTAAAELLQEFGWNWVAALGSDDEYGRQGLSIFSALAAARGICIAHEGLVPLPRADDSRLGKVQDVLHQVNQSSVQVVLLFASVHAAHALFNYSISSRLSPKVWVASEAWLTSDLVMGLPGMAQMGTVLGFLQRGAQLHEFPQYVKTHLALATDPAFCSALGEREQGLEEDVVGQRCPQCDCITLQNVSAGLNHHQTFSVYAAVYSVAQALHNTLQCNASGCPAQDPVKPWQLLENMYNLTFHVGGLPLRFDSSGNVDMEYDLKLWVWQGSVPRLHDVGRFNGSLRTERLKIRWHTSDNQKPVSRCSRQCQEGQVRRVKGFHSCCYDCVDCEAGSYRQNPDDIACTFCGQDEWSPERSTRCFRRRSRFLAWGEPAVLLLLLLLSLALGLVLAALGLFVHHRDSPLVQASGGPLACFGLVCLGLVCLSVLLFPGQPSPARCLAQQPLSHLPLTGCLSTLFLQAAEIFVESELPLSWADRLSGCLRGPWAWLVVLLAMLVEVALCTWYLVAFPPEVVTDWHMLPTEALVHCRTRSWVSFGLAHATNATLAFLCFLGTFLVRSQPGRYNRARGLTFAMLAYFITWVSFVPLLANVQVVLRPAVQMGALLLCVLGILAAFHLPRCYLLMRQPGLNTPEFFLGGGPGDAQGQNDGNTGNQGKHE
Description: T1R1/T1R3 assay (cells expressing hT1R1 in the presence of hT1R3). It is filed as cell-based. From the text: To implement the identification of hT1R1-TMD modulators, cells transiently or stably expressing hT1R1 (T1R1) in the presence of hT1R3 (T1R3) are stimulated with library compounds. Similarly, the same compounds are screened in a GTPγS binding assay utilizing membranes expressing transmembrane domain (TMD) of hT1R1 as described in Zhang et al., Proc. Nat'l Acad. Sci., vol. 105, pp. 20930-20934 (2008). Compounds active exclusively active in the two assays are then prioritized and evaluated in sensory for the detection of an umami note on their own and synergy in the presence of MSG or MSG+IMP.
The compound N-(heptan-4-yl)-benzo[d][1,3]dioxole-5-carboxamide (S807) was used as a test compound in a T1R1/T1R3 assay, both alone and in the presence of monosodium glutamate (MSG).
In a similar way, the T1R1/T1R3 assay was used to measure the activity of monosodium glutamate (MSG), inosine 5′monophosphate (IMP), S807, MSG+IMP, 5807+MSG, 5807+IMP, and 5807+MSG+IMP.

SMILES strings stand for the structures.

Regarding `N[C@@H](CCC(=O)O)C(=O)[O-].[Na+]` [MSG, monosodium glutamate, reference compound], in experiment [1], the “number of selections favoring the solution as having greater umami taste” value came out at 19.
For `CCCC(CCC)NC(=O)c1ccc2c(c1)OCO2` [S807, N-(heptan-4-yl)-benzo[d][1,3]dioxole-5-carboxamide], the “agonist activity on T1R1/T1R3” value on T1R1/T1R3 (S807 alone, FIG. 2) was “agonist activity”. Further, the “enhancement of the MSG effect on T1R1/T1R3” value at T1R1/T1R3 (in the presence of MSG, FIG. 2) was “enhancement properties on the MSG effect”. Further, on T1R1/T1R3 (with MSG), the “effect in combination with MSG (percent activity, FIG. 3)” value was “synergistic effect”. Also, the “effect in combination with MSG and IMP (percent activity, FIG. 3)” value on T1R1/T1R3 (with the combination of MSG and IMP) is on record as “synergistic effect”. Besides, in experiment [1], the “number of selections favoring the solution as having greater umami taste” value came to 13 and the “preference for MSG versus S807 (umami taste)” value is “no statistically significant preference”.
